Source: patent US20080275029A1, “Compounds for Treating Protein-Kinase Mediated Disorders” (ASTEX THERAPEUTICS LIMITED, priority 2004, published 2008)
Counter-ions that a name gives are not always drawn.

Biological target: T1, protein kinase B (PKB), fusion protein PKB-PIF (Homo sapiens, UniProt P31751)
T1 construct: made in house
Test: Measurement of PKB kinase inhibitory activity (IC50)
Type: biochemical
Details: not given
Procedure: The inhibition of protein kinase B (PKB) activity by compounds can be determined essentially as described by Andjelkovic et al. (Mol. Cell. Biol. 19, 5061-5072 (1999)) but using a fusion protein described as PKB-PIF and described in full by Yang et al (Nature Structural Biology 9, 940-944 (2002)). […] A final concentration of 0.6 nM enzyme is used in a buffer that includes 20 mM MOPS pH 7.2, 30 μM ATP/γ^33P-ATP and 25 μM substrate. Compounds are added in DMSO solution to a final DMSO concentration of 2.5%. The reaction is allowed to proceed for 20 minutes before addition of excess orthophosphoric acid to quench activity. The reaction mixture is transferred to a phosphocellulose filter plate where the peptide binds and the unused ATP is washed away. After washing, scintillant is added and the incorporated activity measured by scintillation counting.
The % inhibition of the PKB activity is calculated and plotted in order to determine the concentration of test compound required to inhibit 50% of the PKB activity (IC50).

T1 sequence (P31751 with tags, fused parts or gaps limits assumed): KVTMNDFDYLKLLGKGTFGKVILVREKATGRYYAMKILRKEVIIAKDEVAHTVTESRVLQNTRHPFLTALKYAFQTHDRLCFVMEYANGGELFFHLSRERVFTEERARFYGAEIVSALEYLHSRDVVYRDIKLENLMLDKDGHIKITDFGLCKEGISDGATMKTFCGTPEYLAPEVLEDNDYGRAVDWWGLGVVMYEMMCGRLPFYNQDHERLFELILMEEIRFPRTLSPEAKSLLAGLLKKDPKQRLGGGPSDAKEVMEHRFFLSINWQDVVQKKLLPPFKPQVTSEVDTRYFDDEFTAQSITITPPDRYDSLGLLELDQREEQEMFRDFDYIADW

SMILES | IC50 [µM]
O=c1[nH]cnc2cc(N3CCNCC3)ccc12 [Example 18, 7-piperazin-1-yl-3H-quinazolin-4-one] | < 10
NCCCOc1ccc2c(=O)[nH]cnc2c1 [Example 9, 7-(3-Amino-propoxy)-3H-quinazolin-4-one] | < 10
O=c1[nH]cnc2cc(NC3CCNC3)ccc12 (stereo not shown) [Example 16, 7-(Pyrrolidin-3-ylamino)-3H-quinazolin-4-one] | < 10

Same assay, conditions: PKB-PIF activated with PDK1, 30 μM ATP, AKTide-2T substrate, 20 minutes; read-out: IC50 (concentration required to inhibit 50% of the PKB activity)

SMILES | IC50 [µM]
NC1(c2ccc(Cl)cc2)CCN(c2ccc3c(=O)[nH]cnc3c2)CC1 [Example 40, 7-[4-Amino-4-(4-chloro-phenyl)-piperidin-1-yl]-3H-quinazolin-4-one] | < 10
O=C(Nc1ccc2c(=O)[nH]cnc2c1)C1(c2ccccc2)CCNCC1 [Example 4, 4-Phenyl-piperidine-4-carboxylic acid (4-oxo-3,4-dihydro-quinazolin-7-yl)-amide] | < 10
O=C(Nc1ccc2c(=O)[nH]cnc2c1)C1(c2ccc(Cl)cc2)CCNCC1 [Example 30, 4-(4-Chloro-phenyl)-piperidine-4-carboxylic acid (4-oxo-3,4-dihydro-quinazolin-7-yl)-amide] | < 10
O=C(NCc1ccc(F)cc1)Nc1ccc2c(=O)[nH]cnc2c1 [Example 6, 1-(4-Fluoro-benzyl)-3-(4-oxo-3,4-dihydro-quinazolin-7-yl)-urea] | < 10
N[C@H]1CC[C@H](Oc2ccc3c(=O)[nH]cnc3c2)CC1 [Example 31, 7-(4-Amino-cyclohexyloxy)-3H-quinazolin-4-one] | < 10
NC(c1ccc(Cl)cc1)C1CCN(c2ccc3c(=O)[nH]cnc3c2)CC1 (stereo not shown) [Example 36, 7-{4-[Amino-(4-chloro-phenyl)-methyl]-piperidin-1-yl}-3H-quinazolin-4-one] | < 10
N[C@H]1CC[C@H](Nc2ccc3c(=O)[nH]c(=O)[nH]c3c2)CC1 [Example 21, 7-(4-Amino-cyclohexylamino)-1H-quinazoline-2,4-dione] | < 10
NCCC(NC(=O)c1ccc2c(=O)[nH]cnc2c1)c1ccc(Cl)cc1 (stereo not shown) [Example 3, 4-Oxo-3,4-dihydro-quinazoline-7-carboxylic acid[3-amino-1-(4-chloro-phenyl-propyl]-amide hydrochloride] | < 10
NCC1(c2ccc(Cl)cc2)CCN(c2ccc3c(=O)[nH]cnc3c2)CC1 [Example 27, 7-[4-Aminomethyl-4-(4-chloro-phenyl)-piperidin-1-yl]-3H-quinazolin-4-one] | < 10
O=C(NCc1ccccc1)Nc1ccc2c(=O)[nH]cnc2c1 [Example 8, 1-Benzyl-3-(4-oxo-3,4-dihydro-quinazolin-7-yl)-urea] | < 10
Cc1nc2cc(N3CCC(CN)(c4ccc(Cl)cc4)CC3)ccc2c(=O)[nH]1 [Example 35, 7-[4-Aminomethyl-4-(4-chloro-phenyl)-piperidin-1-yl]-2-methyl-3H-quinazolin-4-one] | < 10
NCCCc1ccc2c(=O)[nH]cnc2c1 [Example 14, 7-(3-Amino-propyl)-3H-quinazolin-4-one] | < 10
O=c1[nH]cnc2cc(NCC3(c4ccc(Cl)cc4)CCNCC3)ccc12 [Example 32, 7-{[4-(4-Chloro-phenyl)-piperidin-4-ylmethyl]-amino}-3H-quinazolin-4-one] | < 10
O=c1[nH]cnc2cc(/C=C/C3(c4ccc(Cl)cc4)CCNCC3)ccc12 [Example 39, 7-{2-[4-(4-Chloro-phenyl)-piperidin-4-yl]-vinyl}-3H-quinazolin-4-one dihydrochloride] | < 10
CN1CCCN(c2ccc3c(=O)[nH]cnc3c2)CC1 [Example 22, 7-(4-Methyl-[1,4]diazepan-1-yl)-3H-quinazolin-4-one] | < 10
NCC[C@H](C(=O)Nc1ccc2c(=O)[nH]cnc2c1)c1ccc(Cl)c(Cl)c1 [Example 28] | < 10
NC1CCN(c2ccc3c(=O)[nH]cnc3c2)CC1 [Example 17, 7-(4-Amino-piperidin-1-yl)-3H-quinazolin-4-one] | < 10

SMILES | IC50 [µM]
Cn1c(=O)[nH]c(=O)c2ccc(OCC3(c4ccc(Cl)cc4)CCNCC3)cc21 [Example 37, 7-[4-(4-Chloro-phenyl)-piperidin-4-ylmethoxy]-1-methyl-1H-quinazoline-2,4-dione] | < 10
O=c1[nH]cnc2cc(N3CCCNCC3)ccc12 [Example 19, 7-[1,4]Diazepan-1-yl-3H-quinazolin-4-one] | < 10
CNCCC(C(=O)Nc1ccc2c(=O)[nH]cnc2c1)c1ccc(Cl)cc1 (stereo not shown) [Example 2, 2-(4-Chloro-phenyl)-4-methylamino-N-(4-oxo-3,4-dihydro-quinazolin-7-yl)-butyramide] | < 10
N[C@H]1CC[C@H](Nc2ccc3c(=O)[nH]cnc3c2)CC1 [Example 15, 7-(trans-4-Amino-cyclohexylamino)-3H-quinazolin-4-one] | < 10
O=c1[nH]cnc2cc(N3CCC(CO)(c4ccc(Cl)cc4)CC3)ccc12 [Example 34, 7-[4-(4-Chloro-phenyl)-4-hydroxymethyl-piperidin-1-yl]-3H-quinazolin-4-one] | < 10
CN1CCN(c2ccc3c(=O)[nH]cnc3c2)CC1 [Example 26, 7-(4-Methyl-piperazin-1-yl)-3H-quinazolin-4-one] | < 50
Cn1c(=O)[nH]c(=O)c2ccc(N3CCC(CN)(Cc4ccc(Cl)cc4)CC3)cc21 [Example 42, 7-[4-Aminomethyl-4-(4-chloro-benzyl)-piperidin-1-yl]-1-methyl-1H-quinazoline-2,4-dione] | < 10
CN1CCN(C2CCN(c3ccc4c(=O)[nH]cnc4c3)CC2)CC1 [Example 23, 7-[4-(4-Methyl-piperazin-1-yl)-piperidin-1-yl]-3H-quinazolin-4-one] | < 50
NCCC(C(=O)Nc1ccc2c(=O)[nH]cnc2c1)c1ccc(Cl)c(Cl)c1 (stereo not shown) [Example 1, 4-Amino-2-(3,4-dichloro-phenyl)-N-(4-oxo-3,4-dihydro-quinazolin-7-yl)-butyramide] | < 10
O=c1[nH]cnc2cc(N3CCNC(c4ccccc4)C3)ccc12 (stereo not shown) [Example 25] | < 50
O=C(NCc1ccc(Cl)cc1)Nc1ccc2c(=O)[nH]cnc2c1 [Example 5, 1-(4-Chloro-benzyl)-3-(4-oxo-3,4-dihydro-quinazolin-7-yl)-urea] | < 10
O=c1[nH]cnc2cc(OCC3(c4ccccc4)CCNCC3)ccc12 [Example 7, 7-(4-Phenyl-piperidin-4-ylmethoxy)-3H-quinazolin-4-one] | < 10
O=c1[nH]cnc2cc(OCC3(c4ccc(Cl)cc4)CCNCC3)ccc12 [Example 33, 7-[4-(4-Chloro-phenyl)-piperidin-4-ylmethoxy]-3H-quinazolin-4-one] | < 10
NCC[C@@H](C(=O)Nc1ccc2c(=O)[nH]cnc2c1)c1ccc(Cl)c(Cl)c1 [Example 29, (R)-4-Amino-2-(3,4-dichloro-phenyl)-N-(4-oxo-3,4-dihydro-quinazolin-7-yl)butyramide] | < 10
O=c1[nH]cnc2cc(NC3CCCNC3)ccc12 (stereo not shown) [Example 20, 7-(Piperidin-3-ylamino)-3H-quinazolin-4-one] | < 10
NC1(Cc2ccc(Cl)cc2)CCN(c2ccc3c(=O)[nH]cnc3c2)CC1 [Example 38, 7-[4-Amino-4-(4-chloro-benzyl)-piperidin-1-yl]-3H-quinazolin-4-one] | < 10
NCC1(Cc2ccc(Cl)cc2)CCN(c2ccc3c(=O)[nH]cnc3c2)CC1 [Example 41, 7-[4-Aminomethyl-4-(4-chloro-benzyl)-piperidin-1-yl]-3H-quinazolin-4-one] | < 10
